Reference: patent US8916579B2, “5-fluoropyrimidinone derivatives” (Dow AgroSciences, LLC., priority 2009, dated 2014)
Read-outs that look alike come from different tables or passages of the source.

Experiments:
[1] = system: Mycosphaerella graminicola; anamorph: Septoria tritici; Bayer code SEPTTR; experiment: Fungicidal activity: leaf blotch of wheat, greenhouse wheat plants (variety Yuma), percent disease control; assay type: in vivo; conditions: Zymoseptoria tritici
Procedure: Evaluation of Fungicidal Activity: Leaf Blotch of Wheat (Mycosphaerella graminicola; anamorph: Septoria tritici; Bayer code SEPTTR)
Wheat plants (variety Yuma) were grown from seed in a greenhouse in 50% mineral soil/50% soil-less Metro mix until the first leaf was fully emerged, with 7-10 seedlings per pot. These plants were inoculated with an aqueous spore suspension of Septoria tritici either prior to or after fungicide treatments. After inoculation the plants were kept in 100% relative humidity (one day in a dark dew chamber followed by two to three days in a lighted dew chamber) to permit spores to germinate and infect the leaf. The plants were then transferred to a greenhouse for disease to develop.
The effectiveness of the test compounds in controlling disease was determined by assessing the severity of disease on treated plants, then converting the severity to percent control based on the level of disease on untreated, inoculated plants. • In each case of Table II the rating scale is as follows: […]

[2] = 24 h, One-Day Protectant (1DP), 100 ppm, wheat plants, read-out: SEPTTR 100 PPM 1DP (% Disease Control rating)
[3] = 72 h, Three-Day Curative (3DC), 100 ppm, wheat plants, read-out: SEPTTR 100 PPM 3DC (% Disease Control rating)
[4] = 24 h, read-out: SEPTTR 100 PPM 1DP (% Disease Control rating)
[5] = 72 h, read-out: SEPTTR 100 PPM 3DC (% Disease Control rating)

SMILES | melting point | pest or weed control at 100 ppm [1, 2] | pest or weed control at 100 ppm [1, 3] | pest or weed control at 100 ppm [1, 4] | pest or weed control at 100 ppm [1, 5]
Nc1nc(=O)n(-c2ccc3c(c2)OCO3)cc1F [Compound 47] | 275 to 279 °C | 26 to 50% | 0 to 25% |  | 
CN(C)/C=N/c1nc(=O)n(-c2ccsc2)cc1F [Compound 56, (E)-N′-(5-fluoro-2-oxo-1-(thiophen-3-yl)-1,2-dihydropyrimidin-4-yl)-N,N-dimethylformimidamide] | 211 to 213 °C | 26 to 50% | 51 to 75% |  | 
COc1ccc(-n2cc(F)c(/N=C/N(C)C)nc2=O)cc1OC [Compound 57] | 196.1 to 198 °C | 0 to 25% | 0 to 25% |  | 
C=Cn1cc(F)c(/N=C/N(C)C)nc1=O [Compound 58] | 179.6 to 181.3 °C | 76 to 100% | 76 to 100% |  | 
COc1ccc(-n2cc(F)c(NCc3ccccc3F)nc2=O)cc1OC [Compound 66] | 206.3 to 207.9 °C | 0 to 25% | 0 to 25% |  | 
Nc1nc(=O)n(CC2CCCO2)cc1F (stereo not drawn) [Compound 76] | 179.2 to 181.1 °C | 0 to 25% | 51 to 75% |  | 
CCOC(=O)Nc1nc(=O)n(CC2CC2)cc1F [Compound 80, ethyl 1-(cyclopropylmethyl)-5-fluoro-2-oxo-1,2-dihydropyrimidin-4-ylcarbamate] | 90 to 92 °C |  |  | 0 to 25% | 51 to 75%
O=C(Oc1ccccc1)N(C(=O)Oc1ccccc1)c1nc(=O)n(CC2CC2)cc1F [Compound 82] | 159 to 161 °C |  |  | 26 to 50% | 26 to 50%
CCCCCNC(=O)Nc1nc(=O)n(CC2CC2)cc1F [Compound 87] | 113 to 114.9 °C | 0 to 25% | 51 to 75% |  | 
CCCCCNC(=O)Nc1nc(=O)n(Cc2cccnc2)cc1F [Compound 89] | 146 to 147.6 °C | 0 to 25% | 26 to 50% |  | 
Cc1ccc(NC(=O)Nc2nc(=O)n(Cc3cccnc3)cc2F)cc1 [Compound 90] | 178.2 to 180 °C | 0 to 25% | 0 to 25% |  | 
CCCCCNC(=O)Nc1nc(=O)n(CSC)cc1F [Compound 92] | 100.2 to 101.8 °C | 76 to 100% | 76 to 100% |  | 

Second part, led by results:

melting point | SMILES | pest or weed control at 100 ppm [1, 2] | pest or weed control at 100 ppm [1, 3] | pest or weed control at 100 ppm [1, 4] | pest or weed control at 100 ppm [1, 5]
75 to 78 °C | O=c1nc(NCc2ccccc2F)c(F)cn1-c1ccsc1 [Compound 65, 5-fluoro-4-(2-fluorobenzylamino)-1-(thiophen-3-yl)pyrimidin-2(1H)-one] | 0 to 25% | 0 to 25% |  | 
168.6 to 169.1 °C | C=Cn1cc(F)c(NCc2ccccc2F)nc1=O [Compound 67] | 0 to 25% | 51 to 75% |  | 
140 to 142.8 °C | CC(C)Cn1cc(F)c(N)nc1=O [Compound 77] | 26 to 50% | 0 to 25% |  | 
228 to 230 °C | O=C(Nc1nc(=O)n(CC2CC2)cc1F)OCc1ccccc1 [Compound 81] | 26 to 50% | 76 to 100% |  | 
197 to 199 °C | O=C(Nc1ccccc1Cl)Nc1nc(=O)n(CC2CC2)cc1F [Compound 85, 1-(2-chlorophenyl)-3-(1-(cyclopropylmethyl)-5-fluoro-2-oxo-1,2-dihydropyrimidin-4-yl)urea] | 0 to 25% | 0 to 25% |  | 
181.8 to 183.5 °C | CSCn1cc(F)c(NC(=O)Nc2ccccc2Cl)nc1=O [Compound 86] | 26 to 50% | 26 to 50% |  | 
205.6 to 207.5 °C | Cc1ccc(NC(=O)Nc2nc(=O)n(CC3CC3)cc2F)cc1 [Compound 88] | 0 to 25% | 51 to 75% |  | 
210.5 to 212.3 °C | O=C(Nc1ccccc1Cl)Nc1nc(=O)n(Cc2cccnc2)cc1F [Compound 91] | 0 to 25% | 0 to 25% |  | 
188.8 to 190.2 °C | CSCn1cc(F)c(NC(=O)Nc2ccc(C)cc2)nc1=O [Compound 93] | 0 to 25% | 51 to 75% |  | 
119.8 to 121.9 °C | O=C(Nc1nc(=O)n(CC2CCCO2)cc1F)c1ccccc1F (stereo not drawn) [Compound 96] | 0 to 25% | 26 to 50% |  | 
134.5 to 136.5 °C | CC(=O)Nc1nc(=O)n(CC(C)C)cc1F [Compound 97] | 26 to 50% | 26 to 50% |  | 
161.3 to 163 °C | CC(C)Cn1cc(F)c(NC(=O)c2ccccc2F)nc1=O [Compound 98] | 0 to 25% | 0 to 25% |  | 
125.6 to 127.5 °C | CC(C)Cn1cc(F)c(NC(=O)c2cccs2)nc1=O [Compound 99] | 0 to 25% | 76 to 100% |  | 
88.8 to 91.7 °C | CC(C)Cn1cc(F)c(NCc2cccs2)nc1=O [Compound 106] | 26 to 50% | 26 to 50% |  | 
